Experiment: xn = mol fraction of the nth substance listed
Details: Liquid; for viscosity: Capillary tube (Ostwald / Ubbelohde) method; for mass density: isochoric method

CCCCCCCC [octane] + CCCCCCC
Details | mass density [kg/m3] | viscosity [mPa·s]
323.82 K, 10000 kPa, x2 = 0.7906 | – | 0.353
331.45 K, 4121 kPa, x2 = 0.7906 | 658.7 | –
331.45 K, 6311 kPa, x2 = 0.7906 | 662.6 | –
331.45 K, 8523 kPa, x2 = 0.7906 | 665.5 | –
331.45 K, 10350 kPa, x2 = 0.7906 | 667.1 | –
331.55 K, 4119 kPa, x2 = 0.5427 | 665 | –
331.55 K, 5944 kPa, x2 = 0.5427 | 668.1 | –
331.55 K, 8203 kPa, x2 = 0.5427 | 670.9 | –
331.55 K, 10100 kPa, x2 = 0.5427 | 672.6 | –
333.15 K, 100 kPa, x2 = 0.2808 | 664.9 | –
333.15 K, 100 kPa, x2 = 0.5427 | 659.9 | –
333.15 K, 100 kPa, x2 = 0.7906 | 654.4 | –
333.54 K, 100 kPa, x2 = 0.2808 | – | 0.322
333.54 K, 5000 kPa, x2 = 0.2808 | – | 0.341
333.54 K, 10000 kPa, x2 = 0.2808 | – | 0.36
333.73 K, 100 kPa, x2 = 0.5427 | – | 0.3
333.73 K, 5000 kPa, x2 = 0.5427 | – | 0.319
333.73 K, 10000 kPa, x2 = 0.5427 | – | 0.338
335.62 K, 100 kPa, x2 = 0.7906 | – | 0.281
335.62 K, 5000 kPa, x2 = 0.7906 | – | 0.298
335.62 K, 10000 kPa, x2 = 0.7906 | – | 0.316
338.15 K, 100 kPa, x2 = 0.2808 | 661 | –
338.15 K, 100 kPa, x2 = 0.5427 | 655.6 | –
338.15 K, 100 kPa, x2 = 0.7906 | 650.1 | –
343.15 K, 100 kPa, x2 = 0.2808 | 656.8 | –
343.15 K, 100 kPa, x2 = 0.5427 | 651.2 | –
343.15 K, 100 kPa, x2 = 0.7906 | 645.6 | –
344.21 K, 100 kPa, x2 = 0.7906 | – | 0.26
344.21 K, 5000 kPa, x2 = 0.7906 | – | 0.276
344.21 K, 10000 kPa, x2 = 0.7906 | – | 0.292
344.39 K, 100 kPa, x2 = 0.2808 | – | 0.291
344.39 K, 5000 kPa, x2 = 0.2808 | – | 0.308
344.39 K, 10000 kPa, x2 = 0.2808 | – | 0.325
344.4 K, 100 kPa, x2 = 0.5427 | – | 0.273
344.4 K, 5000 kPa, x2 = 0.5427 | – | 0.29
344.4 K, 10000 kPa, x2 = 0.5427 | – | 0.307
352.61 K, 2844 kPa, x2 = 0.5427 | 648 | –
352.61 K, 8237 kPa, x2 = 0.5427 | 654.9 | –
352.61 K, 10040 kPa, x2 = 0.5427 | 657 | –
352.62 K, 100 kPa, x2 = 0.5427 | – | 0.255
352.62 K, 5000 kPa, x2 = 0.5427 | – | 0.27
352.62 K, 10000 kPa, x2 = 0.5427 | – | 0.286
353.2 K, 100 kPa, x2 = 0.7906 | – | 0.239
353.2 K, 5000 kPa, x2 = 0.7906 | – | 0.255
353.2 K, 10000 kPa, x2 = 0.7906 | – | 0.27
354.08 K, 100 kPa, x2 = 0.2808 | – | 0.267
354.08 K, 5000 kPa, x2 = 0.2808 | – | 0.283
354.08 K, 10000 kPa, x2 = 0.2808 | – | 0.299
357.15 K, 100 kPa, x2 = 0.2808 | 644.3 | –
357.15 K, 100 kPa, x2 = 0.5427 | 638.8 | –
357.15 K, 100 kPa, x2 = 0.7906 | 633 | –
362.65 K, 4800 kPa, x2 = 0.2808 | 646.1 | –
362.65 K, 6720 kPa, x2 = 0.2808 | 649 | –
362.65 K, 9300 kPa, x2 = 0.2808 | 652.5 | –
363.71 K, 100 kPa, x2 = 0.2808 | – | 0.245
363.71 K, 5000 kPa, x2 = 0.2808 | – | 0.261
363.71 K, 10000 kPa, x2 = 0.2808 | – | 0.276
363.74 K, 100 kPa, x2 = 0.5427 | – | 0.232
363.74 K, 5000 kPa, x2 = 0.5427 | – | 0.247
363.74 K, 10000 kPa, x2 = 0.5427 | – | 0.26
364.62 K, 100 kPa, x2 = 0.7906 | – | 0.216
364.62 K, 5000 kPa, x2 = 0.7906 | – | 0.232
364.62 K, 10000 kPa, x2 = 0.7906 | – | 0.246
365.46 K, 3432 kPa, x2 = 0.7906 | 631.8 | –
365.46 K, 8983 kPa, x2 = 0.7906 | 639.4 | –
365.46 K, 9963 kPa, x2 = 0.7906 | 640.9 | –

Source: the NIST ThermoML archive (doi:10.1016/j.jct.2006.01.012)
